Measured values taken from paper PMC10610545, “Preclinical Evaluation of an Imidazole-Linked Heterocycle for Alzheimer’s Disease” (Pharmaceutics, 2023).

Key:
[1] = Pharmacokinetics of LSL33 in CD1 mice (plasma and brain)
Description: The pharmacokinetic study was carried on in male CD1 mice (Envigo Laboratories) with a body
weight between 40 to 50 g (n = 3-4 per group). Animals were randomized to be included in the
treated or control groups. A single intraperitoneal dose of LSL33 (2 mg/kg, 10 ml/kg) was
administered early in the morning (between 8 and 11 a.m.) without anaesthesia. Compound was
monitored for signs of pain or distress during the time between injection and euthanasia. Mice
were sacrificed by cervical dislocation and blood (0.6 mL) was collected at different time points
in tubes with serum gel and clotting activator (Sarstedt Micro tube 1.1 mL Z-Gel). Samples were
centrifugated at 10.000 rpm for 10 min to obtain plasma and stored at -80 °C up to analysis of
compound concentration by UPLC-MS/MS.

[2] = target: α2-adrenergic receptor (α2-AR); experiment: Competition binding against [3H]RX821002, membranes from post-mortem human frontal cortex
From the text: The inhibition constant (Ki) for each compound was obtained and is expressed as the corresponding pKi. The selectivity for these two receptors was expressed by the I2/α2 index, calculated as the antilogarithm of the […] between pKi values for I2-IR and pKi values for α2-AR.
Preparation of cellular membranes.
Human brain samples were obtained at autopsy in the Basque Institute of Legal Medicine, Bilbao, Spain. Samples from the prefrontal cortex (Brodmann’s area 9) were dissected at the time of autopsy and immediately stored at -70 °C until assay. The study was developed in compliance with policies of research and ethical review boards for postmortem brain studies.
To obtain cellular membranes (P2 fraction) the different samples were homogenized using an ultraturrax in 10 volumes of homogenization buffer (0.25 M sucrose, 5 mM Tris–HCl, pH 7.4).
The crude homogenate was centrifuged for 5 min at 1000 g (4 °C) and the supernatant was centrifuged again for 10 min at 40,000 g (4 °C). The resultant pellet was washed twice in 5 volumes of homogenization buffer and recentrifuged in similar conditions. Protein content was measured according to the method of Bradford using BSA as standard.
Competition Binding Assays.
The pharmacological activity of the compounds was evaluated through competition binding studies against the I2-IR selective radioligand [3H]2-BFI or the α2-adrenergic receptor selective radioligand [3H]RX821002. Specific binding was measured in 0.25 mL aliquots (50 mM Tris-HCl, pH 7.5) containing 100 µg of membranes, which were incubated in 96-well plates either with […]
Incubations were terminated by separating free ligand from bound ligand by rapid filtration […]
counted for radioactivity by liquid scintillation spectrometry using a MicroBeta TriLux counter (PerkinElmer). Specific binding was determined and plotted as a function of the compound concentration. Nonspecific binding was determined in the presence of idazoxan (10–5 M), a compound with well stablished affinity for I2-IR and α2-adrenergic receptors, in [3H]2-BFI and [3H]RX821002 assays. To obtain the inhibition constant (Ki) analyses of competition experiments were performed by nonlinear regression using the GraphPad Prism program. Ki values were normalized to pKi values. I2-IR/α2 selectivity index was calculated as the antilogarithm of the difference between pKi values for I2-IR and pKi values for α2-ARs.

[3] = tested on: 5XFAD mice; experiment: Novel object recognition test (NORT) in 5XFAD mice; format: in vivo, mouse; conditions: 2 mg/Kg in drinking water, 4 weeks, vs 5XFAD Control
Description: Four-month-old female and male Wt and 5XFAD mice (n = 32) were used to carry out cognitive and molecular analyses. […] The animals had free access to food and water and were kept under standard temperature conditions (22 ± 2 °C) and 12 h/12 h light/dark cycles (300 lx/0 lx). […] After 4 weeks of treatment, cognitive tests, including short- and long-term memory and OLT, were performed to study the effects of treatment on learning and memory. Weight and water consumption were controlled each week, and the LSL33 concentration was adjusted accordingly to reach the optimal dose until euthanasia.
Short- and long-term recognition memories involving cortical areas and the hippocampus were evaluated by NORT. The experimental apparatus used for this test was a 90-degree, two-arm, 25-cm-long, 20-cm-high maze of black polyvinyl chloride. The light intensity in the middle of the field was 30 lux. First, mice were individually habituated to the apparatus for 10 min per day for 3 days. On day 4, the animals were allowed to freely explore two identical objects (A and A or B and B) placed at the end of each arm for a 10 min acquisition trial (first trial-familiarization). […] During the short-term memory retention test, the time that the animal spent exploring the new object (TN) and the old object (TO) was recorded. […] TN and TO were measured from the video recordings from each trial session. […]

[4] = male, CD1, mouse, brain, po, 2 mg/kg
[5] = male, CD1, mouse, plasma, oral, 2 mg/kg

| SMILES | concentration at 15 min [1, 4] [ng/g] | concentration at 30 min [1, 4] [ng/g] | AUC(0-inf) [1, 5] [ng·h/mL] | AUC(0-t) [1, 5] [ng·h/mL] | Cmax [1, 5] [ng/mL] | Tmax [1, 5] [h] | half-life ([1]; male, CD1, mouse, plasma, oral, 2 mg/kg, t1/2β (terminal elimination half-life), CD1 mice, single 2 mg/kg dose) [h] | AUC0-1440/AUC0-∞ ratio ([1]; plasma, 2 mg/kg) | t1/2β (terminal elimination half-life) ([1]; plasma, CD1 mice, single 2 mg/kg dose, 2 mg/kg) [h] | maximum mean concentration in plasma as share of the drug administered ([1]; single oral dose) [%] | [3H]-RX821002 α2 pKi [2] | NORT discrimination index, short- and long-term memory [3] |
| --- | --- | --- | --- | --- | --- | --- | --- | --- | --- | --- | --- | --- |
| Cl.c1ccc2sc(-c3ncc[nH]3)cc2c1 [LSL33, 2-(Benzo[b]thiophene-2-yl)-1H-imidazole hydrochloride] | 15.2 | 6.7 | 3050 | 2950 | 950 ± 620 | 0.25 | 5.21 | 0.97 | 5.2135 ± 0.5817 | ≤ 1 | 4.70 ± 0.12 | significant improvement in cognitive impairment in both short- and long-term memories |
| c1ccc2oc(-c3ncc[nH]3)cc2c1 [LSL60101, reference compound] | – | – | – | – | – | – | – | – | – | – | 3.18 ± 0.17 | – |
